As a reminder, the IC50 is the concentration that gives 50% inhibition. Broadly, the LD50 is the dose expected to kill half of the subjects tested. A lower LD50 goes with greater toxicity.

The source of these data is patent US4792547A, “Pyrazine-2-carboxamide derivatives useful in treating allergic disease” (priority 1985, dated 1988).

The subject of series [1] is mast cells. The series is described as follows: Inhibitory effect on histamine release from sensitized rat peritoneal mast cells (DNP-As antigen challenge). Type of series: cell-based, Wistar rats. To be noted: Mast cell; rat peritoneal cells passively sensitized with anti-DNP-As rat serum; compound 1 min before DNP-As; 37° C. Here is the method: The inhibitory effect of histamine release was examined with the under method, while using disodium cromoglycate(II), tranilast (III), and TA-5707F(IV)as reference drugs. Mixed peritoneal cells obtained from male Wistar rats weighing 350-400 g were sensitized by incubating for 2 hr at 37° C. with anti-DNP-As rat serum (produced according to the method of Tada and Okumura [Tada, T. and Okmura, K.: J. Immunology, 106,1002 (1971)]. The cell suspension containing about 1×10^5 mast cells/ml was prepared in Hepes Tyrode buffer containing heparin (10 unit/ml ) and BSA (0.3%). This suspension was divided into 0.8 ml aliquots in separate polyethylene tubes. […] After incubation at 37° C. for 1 min, 0.1 ml of DNP-As solution (50μg/ml) were added, followed by incubation at 37° C. for 2 min. The reactio was terminated by adding 2 ml of the cold buffer. The supernatants were separated by centrifugation, the cell pellets were resuspended in 3 ml buffer and placed for 3 min in the heating block (100° C.) to release the residual histamine into cells. The histamine was quantitated using the spedrofluorometric technique of modified Shore's method. The IC 50 was obtained from the dose-response curve.

The conditions of series [2]: cited from earlier work.
Series [3] is described as follows: Acute toxicity test (oral). To be noted: mouse, in vivo. Here is the method: Male ICR mice 5 weeks old were used as 5 animals at a group. The compounds were administered orally at each dosage.

Structures are written as SMILES. Structures can show the parent of a compound that is named as a salt. Bounds are passed on as bounds.

As for `O=C(Nc1nnn[nH]1)c1cncc(N2CCCCC2)n1` [Example 9, 6-(1-Piperidinyl)-N-(1H-5-tetrazolyl)pyrazine-2-carboxamide], the IC50 in series [1] was found to be 5.6 nM.
Still for that read-out and setting: the value for `CN(C)c1cncc(C(=O)Nc2nnn[nH]2)n1` [Example 6, 6-(Dimethylamino)-N-(1H-5-tetrazolyl)pyrazine-2-carboxamide] was 0.47 nM; that for `CN1CCN(c2cncc(C(=O)Nc3nnn[nH]3)n2)CC1` [Example 15, 6-(4-Methyl-1-piperazinyl)-N-(1H-5-tetrazolyl)pyrazine-2-carboxamide hydrochloride hydrate] was 36 nM; that for `CCNc1cncc(C(=O)Nc2nnn[nH]2)n1` [Example 3, 6-(Ethylamino)-N-(1H-5-tetrazolyl)pyrazine-2-carboxamide] was 2 nM.
Same read-out and setting: to `CCCNc1cncc(C(=O)Nc2nnn[nH]2)n1` [Example 4, 6-(n-Propylamino)-N-(1H-5-tetrazolyl)pyrazine-2-carboxamide] belongs 17 nM; to `O=C(Nc1nnn[nH]1)c1cncc(Nc2ccccc2)n1` [Example 16, 6-(Phenylamino)-N-(1H-5-tetrazolyl)pyrazine-2-carboxamide], 0.062 nM.
With `O=C(O)c1cc(=O)c2c(OCC(O)COc3cccc4oc(C(=O)O)cc(=O)c34)cccc2o1` [disodium cromoglycate (II), disodium cromoglycate, reference compound], the “physical discomfort in the throat” value in series [2] (human, in vivo) is listed as “feeling of physical discomfort in the throat”. For the same compound, the IC50 in series [1] was 190 nM.
As for `CNc1cncc(C(=O)Nc2nnn[nH]2)n1` [Example 2, 6-(Methylamino)-N-(1H-5-tetrazolyl)pyrazine-2-carboxamide], the IC50 in series [1] came out at 2.5 nM.
The compound `O=C(Nc1nnn[nH]1)c1cncc(N2CCCC2)n1.[Na]` came in with an LD50 in series [3] (po) of over 2000 mg/kg.
For `O=C(Nc1nnn[nH]1)c1cncc(N2CCOCC2)n1` [Example 14, 6-(4-Morpholinyl)-N-(1H-5-tetrazolyl)pyrazine-2-carboxamide], the IC50 in series [1] came to 36 nM.
On to `COc1ccc(/C=C/C(=O)Nc2ccccc2C(=O)O)cc1OC` [tranilast (III), tranilast, reference compound], for which, in series [2] (daily dosage about 300 mg, oral), the “side effects in the digestive system” value is “nausea, abdominal pain, and gastric discomfort”. In series [1], the IC50 was 24000 nM.
Regarding `CCN(CC)c1cncc(C(=O)Nc2nnn[nH]2)n1` [Example 7, 6-(Diethylamino)-N-(1H-5-tetrazolyl)pyrazine-2-carboxamide], the IC50 in series [1] turned out to be 15 nM.
`O=C(Nc1nnn[nH]1)c1cncc(N2CCCC2)n1` [Example 8 (free), 6-(1-Pyrrolidinyl)-N-(1H-5-tetrazolyl)pyrazine-2-carboxamide] showed a median lethal dose (LD50) in series [3] (male ICR mice 5 weeks old, oral) of over 2000 mg/kg. Besides, the IC50 in series [1] is 1.2 nM.
For `CC(C)Nc1cncc(C(=O)Nc2nnn[nH]2)n1` [Example 5, 6-(Isopropylamino)-N-(1H-5-tetrazolyl)pyrazine-2-carboxamide], the IC50 in series [1] stood at 5 nM.
As to `Cc1cccc(C(=O)Nc2nnn[nH]2)n1` [TA-5707F (IV), 6-methyl-N-(1H-5-tetrazolyl) pyridine-2-carboxamide, reference compound], in series [1], the IC50 is 46 nM.
